The values that follow are results of earlier work, collected in patent US20240269238A1, “Therapeutic Regimens and Methods for Reducing Body Weight in a Subject with Fatty Liver Disease using a GLP-1R and GCGR Agonist” (Spitfire Pharma LLC, priority 2022, published 2024).

For series [1] the following is noted: over 26 weeks of administration; cited from earlier work.
The test system of a further series is liver fat content. The conditions noted are these: 6 weeks; cited from earlier work.

Turning to `CCCCCCCCCCCCCCCC(=O)N[C@@H](CCC(=O)NCCCC[C@H](NC(=O)[C@H](CC(=O)O)NC(=O)[C@H](CO)NC(=O)[C@@H](NC(=O)[C@H](Cc1ccccc1)NC(=O)[C@@H](NC(=O)CNC(=O)[C@H](CCC(N)=O)NC(=O)[C@H](CO)NC(=O)[C@@H](N)Cc1c[nH]cn1)[C@@H](C)O)[C@@H](C)O)C(=O)N[C@@H](CO)C(=O)N[C@@H](CCC(=O)O)C(=O)N[C@@H](Cc1ccc(O)cc1)C(=O)N[C@@H](CC(C)C)C(=O)N[C@@H](CC(=O)O)C(=O)N[C@@H](CO)C(=O)N[C@@H](CCC(=O)O)C(=O)N[C@@H](CCCNC(=N)N)C(=O)N[C@@H](C)C(=O)N[C@@H](CCCNC(=N)N)C(=O)N[C@@H](CC(=O)O)C(=O)N[C@@H](Cc1ccccc1)C(=O)N[C@H](C(=O)N[C@@H](C)C(=O)N[C@@H](Cc1c[nH]c2ccccc12)C(=O)N[C@@H](CC(C)C)C(=O)N[C@@H](CCC(=O)O)C(=O)N[C@@H](C)C(=O)NCC(=O)NCC(=O)O)C(C)C)C(=O)O` [cotadutide], the weight loss in series [1] is recorded as 5.4%. In addition, the “reduction in liver fat content” value with liver fat content is 39%.
